Tests used:
Format in all cases: binding
SMO = target: T1, SMO (Homo sapiens, UniProt Q99835); assay: NanoBRET screen HiBiT-SMO in HEK293; conditions: SMO
T1 construct: purchased Promega (in-house HiBiT-GPCR construct library, NanoBRET)
Protocol: (§1) Each tracer candidate was screened across the entire library of HiBiT-GPCR constructs using NanoBRET as the detection modality. As depicted in Figure 4A, the specificity of interactions was evaluated through decrease in BRET due to competitive displacement of a bound tracer by excess parental compound. Each tracer was analyzed for binding to each HiBiT-GPCR fusion in the absence and in the presence of competing parental compound. Briefly, HEK293 cells were transfected with HiBiT-GPCR constructs diluted into promoterless DNA to reduce expression and maximize translocation to the cell surface. Each tracer candidate was then screened at concentrations of 1 μM and 0.1 μM across cells expressing these fusions. Cells were treated for 1.5 h with tracer either alone or in the presence of 20 μM competing parental compound (i.e., control). BRET was measured upon addition of purified LgBiT and subsequent complementation with HiBiT genetically fused to a GPCR. The specificity of interactions was assessed through a decrease in BRET signal due to competitive displacement of the bound tracer. To further gauge the robustness of these interactions, the fold response over the control (i.e., BRETtracer/BRETcontrol) was calculated. We chose a 1.5-fold response, which translates to ≥7-fold signal over noise as the minimal threshold required to score an interaction as positive. […]. Below we highlight the screening results obtained for our exemplary fluorescent tracers based on Clozapine, Amitriptyline and AZD1283.
(§2) HiBiT-GPCR DNA constructs were diluted in 10 mM Tris pH 8 to a final concentration of 0.01 μg/μL, arrayed in 96-well plates and stored at −20 °C. For transfection, HEK293 cells were suspended in Opti-MEM (without phenol red) supplemented with 2% fetal bovine serum (Seradigm) and 100 units/mL penicillin–streptomycin (Gibco) at a final concentration of 220,000 cells/mL and dispensed into white 96-well plates at 90 μL/well. Subsequent transfections and screens were carried using an Agilent Bravo Automated Liquid Handling Platform. First, the 96-well HiBiT DNA arrays were diluted 25-fold in Opti-MEM (without serum or phenol red) to a final concentration of 0.0004 μg/μL and 20 μL of the diluted DNAs were transferred into new 96-well plates. Next, promoterless carrier DNA (1 μg/μL) was diluted 25-fold (0.04 μg/μL) and then dispensed into the diluted arrays at 20 μL/well. Following brief mixing, Viafect transfection reagent (Promega) diluted 16-fold into Opti-MEM was dispensed into the plates at 40 μL/well. After mixing by pipetting, plates were incubated for 10 min on the pipetting station deck. The DNA-transfection reagent complexes were then added to plates containing cells. To facilitate the screen, 10 μL of DNA-transfection reagent complexes were added in duplicates to the top 4 and bottom 4 rows, resulting in two identical 48-well arrays per plate. Plates with transfected cells were incubated for 18–20 h at 37 °C/5% CO2. A screen of each tracer across the entire library using two different concentrations requires duplicate plates of transfected cells. Depending on the number of tracers being screened, transfections can be scaled up using the same ratios. The next day, for each tracer, four 20× screening solutions in tracer dilution buffer (Promega) were prepared: two duplicates at final concentration of 20 μM and two duplicates at a final concentration of 2 μM. A competing unmodified compound was added to one of each duplicate at a final concentration of 400 μM. The four resulting solutions were diluted 4-fold in Opti-MEM without serum or phenol red to generate 5× solutions (5 µM and 0.5 µM tracer +/− 100 μM competing compound). To screen the library, a BioTek MultiFlo FX liquid dispenser was used to dispense 22.5 µL of tracer solution to the top 4 rows and 22.5 µL tracer + competing compound solution to the 4 bottom rows. Plates were briefly mixed on an orbital shaker and incubated for 1.5 h at room temperature. […]

CCR4 = target: T2, CCR4 (Homo sapiens, UniProt P51679); assay: NanoBRET screen HiBiT-CCR4 in HEK293; conditions: CCR4
T2 construct: purchased Promega (in-house HiBiT-GPCR construct library, NanoBRET)
T2 sequence (P51679 1-360): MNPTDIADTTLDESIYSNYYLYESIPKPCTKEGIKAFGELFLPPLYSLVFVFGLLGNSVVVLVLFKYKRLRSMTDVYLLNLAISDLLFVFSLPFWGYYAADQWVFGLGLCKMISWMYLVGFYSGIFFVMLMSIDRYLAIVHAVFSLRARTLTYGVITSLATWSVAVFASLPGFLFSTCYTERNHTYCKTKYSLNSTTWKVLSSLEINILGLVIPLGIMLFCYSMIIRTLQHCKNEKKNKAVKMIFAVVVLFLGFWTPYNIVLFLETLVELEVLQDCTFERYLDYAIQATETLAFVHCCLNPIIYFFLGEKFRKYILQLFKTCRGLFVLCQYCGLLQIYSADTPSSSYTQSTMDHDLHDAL
Protocol: as §1, §2

PTGIR = target: T3, PTGIR (Homo sapiens, UniProt P43119); assay: NanoBRET screen HiBiT-PTGIR in HEK293; conditions: PTGIR
T3 construct: purchased Promega (in-house HiBiT-GPCR construct library, NanoBRET)
Protocol: as §1, §2

TBXA2R = target: T4, TBXA2R (Homo sapiens, UniProt P21731); assay: NanoBRET screen HiBiT-TBXA2R in HEK293; conditions: TBXA2R
T4 construct: purchased Promega (in-house HiBiT-GPCR construct library, NanoBRET)
T4 sequence (P21731 1-343): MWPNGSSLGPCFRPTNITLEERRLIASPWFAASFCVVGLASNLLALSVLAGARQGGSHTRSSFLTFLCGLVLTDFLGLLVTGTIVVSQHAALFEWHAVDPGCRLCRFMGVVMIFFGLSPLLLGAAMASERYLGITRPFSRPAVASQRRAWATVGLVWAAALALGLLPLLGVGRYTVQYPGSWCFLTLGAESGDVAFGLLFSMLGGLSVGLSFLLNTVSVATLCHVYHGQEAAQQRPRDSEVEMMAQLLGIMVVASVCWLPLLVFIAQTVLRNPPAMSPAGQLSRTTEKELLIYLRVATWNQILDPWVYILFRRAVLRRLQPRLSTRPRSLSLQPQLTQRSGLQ
Protocol: as §1, §2

CYSLTR2 = target: T5, CYSLTR2 (Homo sapiens, UniProt Q9NS75); assay: NanoBRET screen HiBiT-CYSLTR2 in HEK293; conditions: CYSLTR2
T5 construct: purchased Promega (in-house HiBiT-GPCR construct library, NanoBRET)
T5 sequence (Q9NS75 1-346): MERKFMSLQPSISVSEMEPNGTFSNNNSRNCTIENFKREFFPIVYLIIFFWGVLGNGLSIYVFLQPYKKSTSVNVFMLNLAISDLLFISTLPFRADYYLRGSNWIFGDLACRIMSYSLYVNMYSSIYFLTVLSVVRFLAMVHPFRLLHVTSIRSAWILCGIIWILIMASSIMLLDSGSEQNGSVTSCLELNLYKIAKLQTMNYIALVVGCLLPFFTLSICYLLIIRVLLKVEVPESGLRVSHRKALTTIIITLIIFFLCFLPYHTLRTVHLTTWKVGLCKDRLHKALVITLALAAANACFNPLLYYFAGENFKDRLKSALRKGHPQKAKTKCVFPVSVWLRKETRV
Protocol: as §1, §2

HRH3 = target: T6, HRH3 (Homo sapiens, UniProt Q9Y5N1); assay: NanoBRET screen HiBiT-HRH3 in HEK293; conditions: HRH3
T6 construct: purchased Promega (in-house HiBiT-GPCR construct library, NanoBRET)
Protocol: as §1, §2

T6 sequence (Q9Y5N1 whole entry): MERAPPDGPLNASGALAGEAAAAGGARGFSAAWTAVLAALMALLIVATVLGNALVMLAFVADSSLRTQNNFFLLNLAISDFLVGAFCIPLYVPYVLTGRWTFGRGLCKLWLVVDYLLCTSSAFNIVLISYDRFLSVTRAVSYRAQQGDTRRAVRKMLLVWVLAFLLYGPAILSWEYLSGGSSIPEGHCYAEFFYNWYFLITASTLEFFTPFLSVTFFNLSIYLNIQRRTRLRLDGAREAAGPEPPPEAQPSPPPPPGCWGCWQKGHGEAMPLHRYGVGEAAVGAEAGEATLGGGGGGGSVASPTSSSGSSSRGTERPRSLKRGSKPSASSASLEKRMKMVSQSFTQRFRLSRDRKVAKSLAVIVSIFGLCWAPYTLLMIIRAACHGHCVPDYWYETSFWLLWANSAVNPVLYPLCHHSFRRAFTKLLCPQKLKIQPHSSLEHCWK
T3 sequence (P43119 whole entry): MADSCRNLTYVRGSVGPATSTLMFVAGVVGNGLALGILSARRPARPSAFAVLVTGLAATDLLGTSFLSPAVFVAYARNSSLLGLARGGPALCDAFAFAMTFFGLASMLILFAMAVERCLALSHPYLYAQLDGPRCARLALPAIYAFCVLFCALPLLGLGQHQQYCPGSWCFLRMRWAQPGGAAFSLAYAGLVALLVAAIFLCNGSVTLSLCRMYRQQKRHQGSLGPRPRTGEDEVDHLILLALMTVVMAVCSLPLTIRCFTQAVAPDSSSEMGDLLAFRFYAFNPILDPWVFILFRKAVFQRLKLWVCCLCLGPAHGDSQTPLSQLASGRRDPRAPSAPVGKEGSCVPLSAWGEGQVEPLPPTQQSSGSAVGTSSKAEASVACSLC
T1 sequence (Q99835 28-787): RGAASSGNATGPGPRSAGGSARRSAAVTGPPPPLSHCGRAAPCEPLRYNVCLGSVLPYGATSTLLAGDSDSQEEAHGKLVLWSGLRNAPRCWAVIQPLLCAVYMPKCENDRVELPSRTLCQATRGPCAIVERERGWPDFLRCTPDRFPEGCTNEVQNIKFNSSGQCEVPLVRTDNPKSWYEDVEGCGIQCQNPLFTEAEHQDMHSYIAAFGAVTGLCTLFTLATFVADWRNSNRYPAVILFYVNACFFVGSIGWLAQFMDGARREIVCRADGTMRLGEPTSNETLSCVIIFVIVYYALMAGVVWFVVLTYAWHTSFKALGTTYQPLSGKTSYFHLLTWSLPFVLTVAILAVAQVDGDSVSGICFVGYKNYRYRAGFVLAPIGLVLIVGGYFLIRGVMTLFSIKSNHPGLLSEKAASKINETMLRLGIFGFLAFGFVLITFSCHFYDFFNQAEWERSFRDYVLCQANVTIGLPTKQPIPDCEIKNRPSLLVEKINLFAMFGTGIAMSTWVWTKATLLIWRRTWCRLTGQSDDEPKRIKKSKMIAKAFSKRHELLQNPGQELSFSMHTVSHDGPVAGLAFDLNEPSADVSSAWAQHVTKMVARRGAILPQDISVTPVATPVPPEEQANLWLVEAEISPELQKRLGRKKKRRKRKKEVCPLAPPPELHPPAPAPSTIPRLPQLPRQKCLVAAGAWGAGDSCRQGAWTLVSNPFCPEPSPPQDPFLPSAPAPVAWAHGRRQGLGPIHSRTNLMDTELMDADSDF

Row | Compound | NanoBRET Fold Response (SMO; tracer 0.1μM) | NanoBRET Fold Response (SMO; tracer 1μM) | NanoBRET Fold Response (CCR4; tracer 0.1μM) | NanoBRET Fold Response (CCR4; tracer 1μM) | NanoBRET Fold Response (PTGIR; tracer 0.1μM) | NanoBRET Fold Response (PTGIR; tracer 1μM) | NanoBRET Fold Response (TBXA2R; tracer 0.1μM) | NanoBRET Fold Response (TBXA2R; tracer 1μM) | NanoBRET Fold Response (CYSLTR2; tracer 0.1μM) | NanoBRET Fold Response (CYSLTR2; tracer 1μM) | NanoBRET Fold Response (HRH3; tracer 0.1μM) | NanoBRET Fold Response (HRH3; tracer 1μM)
1 | Cc1nc2n(c(=O)c1CCN1CCC(c3noc4cc(F)ccc34)CC1)CCCC2OC(=O)NCCOCCOCCOCCOCCNC(=O)CCc1ccc2n1[B-](F)(F)[N+]1=C(c3ccc[nH]3)C=CC1=C2 (stereo not drawn) [Risperidone-2-NB590] | 0.86 | 1.00 | 1.01 | 1.22 | 1.02 | 1.01 | 0.93 | 1.01 | 0.97 | 1.15 | 1.07 | 1.58
2 | CC(C)N(CC[C@H](c1ccccc1)c1cc(CCNC(=O)CCOCCOCCOCCOCCNC(=O)CCc2ccc3n2[B-](F)(F)[N+]2=C(c4ccc[nH]4)C=CC2=C3)ccc1O)C(C)C [Tolterodine-2-NB590] | 0.73 | 0.83 | 1.29 | 1.16 | 1.07 | 1.12 | 0.79 | 1.01 | 0.93 | 1.00 | 1.49 | 1.07
3 | CC(C)N(CC[C@H](c1ccccc1)c1cc(CCNC(=O)c2ccc(CNC(=O)CCc3ccc4n3[B-](F)(F)[N+]3=C(c5ccc[nH]5)C=CC3=C4)cc2)ccc1O)C(C)C [Tolterodine-BZ-NB590] | 0.93 | 0.94 | 0.95 | 0.86 | 1.00 | 1.04 | 0.91 | 1.03 | 1.00 | 1.08 | 1.16 | 1.28
4 | CCCn1c(=O)c2[nH]c(-c3ccc(OCC(=O)NCCNC(=O)CCOCCNC(=O)c4ccc(CNC(=O)CCc5ccc6n5[B-](F)(F)[N+]5=C(c7ccc[nH]7)C=CC5=C6)cc4)cc3)nc2n(CCC)c1=O [XAC-3-NB590] | 1.01 | 1.05 | 1.36 | 1.29 | 0.99 | 1.05 | 1.04 | 1.04 | 1.08 | 1.01 | 0.81 | 1.33

From PMC8151276, “An Integrated Approach toward NanoBRET Tracers for Analysis of GPCR Ligand Engagement” (Molecules, 2021)
